Assay results as given in US20230002383A1, “NOVEL FUNCTIONALIZED LACTAMS AS MODULATORS OF THE 5-HYDROXYTRYPTAMINE RECEPTOR 7 AND THEIR METHOD OF USE” (Temple University-Of The Commonwealth System of Higher …, priority 2019, published 2023).

molecular target: T1, 5-HT7 receptors (Homo sapiens, UniProt P34969); experiment: HitHunter cAMP enzyme fragment complementation assay, antagonist activity in presence of 5-HT (Kb); assay type: cell-based; parameters: expressed in transfected cells; kept under G418 selection; conditions: antagonist mode vs EC70 5-HT
T1 sequence (P34969 whole entry, the tested form may be a part): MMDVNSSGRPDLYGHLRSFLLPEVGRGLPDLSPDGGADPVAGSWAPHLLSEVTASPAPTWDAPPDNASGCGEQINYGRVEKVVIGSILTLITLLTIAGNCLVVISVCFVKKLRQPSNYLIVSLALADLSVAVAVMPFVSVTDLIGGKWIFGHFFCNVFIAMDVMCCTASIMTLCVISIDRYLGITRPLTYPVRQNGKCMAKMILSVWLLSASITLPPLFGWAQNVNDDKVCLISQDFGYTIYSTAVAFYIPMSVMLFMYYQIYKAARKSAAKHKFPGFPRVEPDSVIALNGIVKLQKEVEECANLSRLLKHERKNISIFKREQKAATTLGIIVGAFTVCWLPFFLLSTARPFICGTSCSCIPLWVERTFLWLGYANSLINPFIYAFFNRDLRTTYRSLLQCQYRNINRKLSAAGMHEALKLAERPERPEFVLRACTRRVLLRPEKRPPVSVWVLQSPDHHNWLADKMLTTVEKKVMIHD
Experimental: Functional efficacy of the compounds of the disclosure on 5-HT7 serotonin receptors were measured in a cell based cAMP enzyme fragment complementation assay using the HitHunter cAMP assay (DiscoveRx). Cells stably expressing human 5HT7 receptors were plated in 96-well plates at 4000 cells/well, 16-20 hours prior to assay in growth media (Ultraculture medium, 2 mM GlutaMax and G418 1 mg/mL. Serial dilutions of the agonist, 5-hydroxytryptamine (5-HT), were prepared in a final concentration range of 10 μM to 10 nM. Compounds of the disclosure were prepared in 3-fold serial dilutions to obtain a final concentration range of 10 μM to 0.1 nM. Compounds of the disclosure are tested for agonist activity in the absence of 5-HT and antagonist activity in the presence of 5-HT. For the cAMP assay, the protocol was followed according to the instructions provided by the supplier. Briefly, cells were incubated with a compound of the disclosure for 30 minutes at 37° C. prior to addition of EC70 concentration of 5-HT. After an additional 30 minutes, cAMP antibody/cell lysis solution was added (20 μL/well) and incubated for 60 minutes at room temperature, cAMP XS+EA reagent is added (20 μL/well) and incubated for 2 hours at room temperature. Luminescence was read on the Envision Multilabel plate reader.

| Structure (SMILES) | Kb |
| --- | --- |
| O=C(Cc1nnn[nH]1)N1CCC2(CC1)C[C@H](CCN1CCN(c3ccc(F)cc3)CC1)NC2=O [Compound A82] | ≥ 500 nM |
| CN1C(=O)C2(CCN(C(=O)C(C)(C)C)CC2)C[C@@H]1CCN1CCN(c2cccc(Cl)c2)CC1 [Compound A91] | 10 to 100 nM |
| NCC(=O)N1CCC2(CC1)C[C@H](CCN1CCN(c3cccc(Cl)c3)CC1)NC2=O [Compound A1] | < 10 nM |
| CN1C(=O)C2(CCN(C(=O)C(C)(F)F)CC2)C[C@@H]1CCN1CCN(c2ccc(F)cc2)CC1 [Compound A103] | < 10 nM |
| O=C(c1cccnc1)N1CCC2(CC1)C[C@H](CCN1CCN(c3ccc(F)cc3)CC1)NC2=O [Compound A81] | 100 to 500 nM |
| O=C(CN1CCOC1=O)N1CCC2(CC1)C[C@H](CCN1CCN(c3ccc(F)cc3)CC1)NC2=O [Compound A83] | 100 to 500 nM |
| CC(=O)NCC(=O)N1CCC2(CC1)C[C@H](CCN1CCN(c3ccc(F)cc3)CC1)NC2=O [Compound A6] | < 10 nM |
| CCC1(CC)C[C@H](CCN2CCN(c3ccccc3)CC2)N(C)C1=O [Compound A85] | 10 to 100 nM |
| CC(=O)NCC(=O)N1CCC2(CC1)C[C@H](CCN1CCN(c3cccc(Cl)c3)CC1)NC2=O [Compound A5] | < 10 nM |
| COC(=O)N1CCC2(CC1)C[C@H](CCN1CCN(c3ccc(F)cc3)CC1)N(C)C2=O [Compound A124] | 10 to 100 nM |
| O=C(c1cccnn1)N1CCC2(CC1)C[C@H](CCN1CCN(c3ccc(F)cc3)CC1)NC2=O [Compound A84] | 100 to 500 nM |
| O=C(CC(F)(F)F)N1CCC2(CC1)C[C@H](CCN1CCN(c3ccc(F)cc3)CC1)NC2=O [Compound A95] | 10 to 100 nM |
| CC[C@H](NC(C)=O)C(=O)N1CCC2(CC1)C[C@H](CCN1CCN(c3ccc(F)cc3)CC1)NC2=O [Compound A183] | < 10 nM |
| CS(=O)(=O)NCC(=O)N1CCC2(CC1)C[C@H](CCN1CCN(c3cccc(Cl)c3)CC1)NC2=O [Compound A9] | 10 to 100 nM |
| CC(=O)N1CCC2(CC1)C[C@H](CCN1CCN(c3ccc(F)cc3)C[C@@H]1C)NC2=O [Compound A107] | < 10 nM |
| CCC(=O)N1CCC2(CC1)C[C@H](CCN1CCN(c3ccc(F)cc3)CC1)N(C)C2=O [Compound A97] | < 10 nM |

| Structure (SMILES) | Kb |
| --- | --- |
| CC(F)(F)C(=O)N1CCC2(CC1)C[C@H](CCN1CCN(c3ccc(F)cc3)CC1)NC2=O [Compound A93] | < 10 nM |
| CN1C(=O)C2(CCN(C(=O)C3CC3)CC2)C[C@@H]1CCN1CCN(c2ccc(F)cc2)CC1 [Compound A99] | < 10 nM |
| NCC(=O)N1CCC2(CC1)C[C@H](CCN1CCN(c3ccc(F)cc3)CC1)NC2=O [Compound A2] | 10 to 100 nM |
| CC(=O)N1CCC2(CC1)C[C@H](CCN1CCN(c3ccc(F)cc3)CC1)N(C)C2=O [Compound A88] | 10 to 100 nM |
| CCC1(CC)C[C@H](CCN2CCN(c3ccc(F)cc3)CC2)N(C)C1=O [Compound A87] | 10 to 100 nM |
| CC(=O)N[C@H](C(=O)N1CCC2(CC1)C[C@H](CCN1CCN(c3ccc(F)cc3)CC1)NC2=O)C(C)C [Compound A184] | < 10 nM |
| CC(=O)N1CCC2(CC1)C[C@H](CCN1CCN(c3ccc(F)cc3)C[C@H]1C)NC2=O [Compound A108] | < 10 nM |
| CC(=O)N[C@@H](C)C(=O)N1CCC2(CC1)C[C@H](CCN1CCN(c3ccc(F)cc3)CC1)NC2=O [Compound A39] | < 10 nM |
| CN1C(=O)C2(CCN(C(=O)C(C)(C)C)CC2)C[C@@H]1CCN1CCN(c2ccc(F)cc2)CC1 [Compound A90] | < 10 nM |
| CC(C)C(=O)N1CCC2(CC1)C[C@H](CCN1CCN(c3ccc(F)cc3)CC1)N(C)C2=O [Compound A98] | 10 to 100 nM |
| CC(=O)N1CCC2(CC1)C[C@H](CCN1CCN(c3ccc(F)cc3)[C@@H](C)C1)NC2=O [Compound A109] | 10 to 100 nM |
| CC(=O)N1CCC2(CC1)C[C@H](CCN1CCN(c3cccc(Cl)c3)CC1)N(C)C2=O [Compound A89] | 10 to 100 nM |
| CC(=O)N[C@@H](C)C(=O)N1CCC2(CC1)C[C@H](CCN1CCN(c3cccc(Cl)c3)CC1)NC2=O [Compound A40] | < 10 nM |
| CS(=O)(=O)NCC(=O)N1CCC2(CC1)C[C@H](CCN1CCN(c3ccc(F)cc3)CC1)NC2=O [Compound A10] | 10 to 100 nM |
| CCC1(CC)C[C@H](CCN2CCN(c3cccc(Cl)c3)CC2)N(C)C1=O [Compound A86] | < 10 nM |
| CC(=O)N[C@@H](C)C(=O)N1CCC2(CC1)C[C@H](CCN1CCN(c3ccc(F)cc3)C[C@H]1C)NC2=O [Compound A123] | < 10 nM |

molecular target: T1, 5-HT7 receptors; experiment: Radiolabeled binding ([3H]LSD competition), membranes of cells expressing recombinant 5-HT7 receptors; parameters: expressed in transfected cells; conditions: [3H]LSD radioligand binding
Experimental: ^1Radiolabeled Binding (IC50 and K1)
A solution of the compound of the disclosure to be tested was prepared as a 1-mg/ml stock in Assay Buffer or DMSO according to its solubility. A similar stock of the reference compound chlorpromazine was also prepared as a positive control. Eleven dilutions (5×assay concentration) of the compound of the disclosure and chlorpromazine were prepared in the Assay Buffer by serial dilution to yield final corresponding assay concentrations ranging from 10 pM to 10 μM.
A stock concentration of 5 nM [^3H]LSD (lysergic acid diethyl amide) was prepared in 50 mM Tris-HCl, 10 mM MgCl2, 1 mM EDTA, pH 7.4 (Assay Buffer). Aliquots (50 μl) of radioligand were dispensed into the wells of a 96-well plate containing 100 μl of Assay Buffer. Duplicate 50-μl aliquots of the compound of the disclosure test and chlorpromazine positive control reference compound serial dilutions were added.
Membrane fractions of cells expressing recombinant 5-HT7 receptors (50 μL) were dispensed into each well. The membranes were prepared from stably transfected cell lines expressing 5-HT7 receptors cultured on 10-cm plates by harvesting PBS-rinsed monolayers, resuspending and lysing in chilled, hypotonic 50 mM Tris-HCl, pH 7.4, centrifuging at 20,000×g, decanting the supernatant and storing at −80° C.; the membrane preparations were resuspended in 3 ml of chilled Assay Buffer and homogenized by several passages through a 26 gauge needle before using in the assay.
The 250-μl reactions were incubated at room temperature for 1.5 hours, then harvested by rapid filtration onto 0.3% polyethyleneimine-treated, 96-well filter mats using a 96-well Filtermate harvester. Four rapid 500-μl washes were performed with chilled Assay Buffer to reduce non-specific binding. The filter mats were dried, then scintillant is added to the filters and the radioactivity retained on the filters was counted in a Microbeta scintillation counter.
Raw data (dpm) representing total radioligand binding (i.e., specific+non-specific binding) was plotted as a function of the logarithm of the molar concentration of the competitor (i.e., test or reference compound). Non-linear regression of the normalized (i.e., percent radioligand binding compared to that observed in the absence of test or reference compound) raw data was performed in Prism 4.0 (GraphPad Software) using the built-in three parameter logistic model describing ligand competition binding to radioligand-labeled sites:
y=bottom+[(top−bottom)/(1+10×−log IC50)]
where bottom equals the residual radioligand binding measured in the presence of 10 μM reference compound (i.e., non-specific binding) and top equals the total radioligand binding observed in the absence of competitor. The log IC50 (i.e., the log of the ligand concentration that reduces radioligand binding by 50%) was thus estimated from the data and used to obtain the Ki by applying the Cheng-Prusoff approximation:
where [ligand] equals the assay radioligand concentration and KD equals the affinity constant of the radioligand for the target receptor. Functional Data (Kb)

| Structure (SMILES) | Ki |
| --- | --- |
| CN(C)CC(=O)N1CCC2(CC1)C[C@H](CCN1CCN(c3cccc(Cl)c3)CC1)NC2=O [Compound A30] | 200 to 500 nM |
| O=C(CN1CCOCC1)N1CCC2(CC1)C[C@H](CCN1CCN(c3ccc(F)cc3)CC1)NC2=O [Compound A33] | ≥ 500 nM |
| CN(C)CC(=O)N1CCC2(CC1)C[C@H](CCN1CCN(c3ccc(F)cc3)CC1)NC2=O [Compound A29] | ≥ 500 nM |
| CC(=O)NC(C)(C)C(=O)N1CCC2(CC1)C[C@H](CCN1CCN(c3ccc(F)cc3)CC1)NC2=O [Compound A17] | 200 to 500 nM |
| CCC1(CC)C[C@H](CCN2CCN(c3ccccc3)CC2)N(C)C1=O [Compound A85] | 50 to 200 nM |
| O=C(CN1CCOCC1)N1CCC2(CC1)C[C@H](CCN1CCN(c3cccc(Cl)c3)CC1)NC2=O [Compound A34] | 200 to 500 nM |
| CC(C)(N)C(=O)N1CCC2(CC1)C[C@H](CCN1CCN(c3ccc(F)cc3)CC1)NC2=O [Compound A13] | 200 to 500 nM |
| CS(=O)(=O)NCC(=O)N1CCC2(CC1)C[C@H](CCN1CCN(c3cccc(Cl)c3)CC1)NC2=O [Compound A9] | 50 to 200 nM |
| CC(C)(C)C(=O)NCC(=O)N1CCC2(CC1)C[C@H](CCN1CCN(c3ccc(F)cc3)CC1)NC2=O [Compound A25] | 200 to 500 nM |
| CC(C)(C)C(=O)NC(C)(C)C(=O)N1CCC2(CC1)C[C@H](CCN1CCN(c3cccc(Cl)c3)CC1)NC2=O [Compound A22] | 50 to 200 nM |
| CC(C)(C)C(=O)NC(C)(C)C(=O)N1CCC2(CC1)C[C@H](CCN1CCN(c3ccc(F)cc3)CC1)NC2=O [Compound A21] | 50 to 200 nM |
| CCC1(CC)C[C@H](CCN2CCN(c3ccc(F)cc3)CC2)N(C)C1=O [Compound A87] | < 50 nM |
| CC(C)(C)C(=O)NCC(=O)N1CCC2(CC1)C[C@H](CCN1CCN(c3cccc(Cl)c3)CC1)NC2=O [Compound A26] | 200 to 500 nM |
| CS(=O)(=O)NCC(=O)N1CCC2(CC1)C[C@H](CCN1CCN(c3ccc(F)cc3)CC1)NC2=O [Compound A10] | 50 to 200 nM |
| CCC1(CC)C[C@H](CCN2CCN(c3cccc(Cl)c3)CC2)N(C)C1=O [Compound A86] | < 50 nM |
| CC(C)(N)C(=O)N1CCC2(CC1)C[C@H](CCN1CCN(c3cccc(Cl)c3)CC1)NC2=O [Compound A14] | 200 to 500 nM |
| CC(=O)NC(C)(C)C(=O)N1CCC2(CC1)C[C@H](CCN1CCN(c3cccc(Cl)c3)CC1)NC2=O [Compound A18] | 200 to 500 nM |

same assay, conditions: read-out: 5-HT7 % Inhib. @ 0.1 uM (Ki column)

| Structure (SMILES) | inhibition at 0.1 µM |
| --- | --- |
| CC(=O)N1CCC2(CC1)C[C@H](CCN1CCN(c3ccc(F)cc3)C[C@@H]1C)NC2=O [Compound A107] | 62% |
| CC(=O)N1CCC2(CC1)C[C@H](CCN1CCN(c3ccc(F)cc3)C[C@H]1C)NC2=O [Compound A108] | 63% |
| CC(=O)N1CCC2(CC1)C[C@H](CCN1CCN(c3ccc(F)cc3)[C@@H](C)C1)NC2=O [Compound A109] | 40% |
| CC(=O)N[C@@H](C)C(=O)N1CCC2(CC1)C[C@H](CCN1CCN(c3ccc(F)cc3)C[C@H]1C)NC2=O [Compound A123] | 64% |

same assay, conditions: read-out: 5-HT7 % Inhib. @ 1 uM (Ki column)

| Structure (SMILES) | inhibition at 1 µM |
| --- | --- |
| CC(=O)N1CCC2(CC1)C[C@H](CCN1CCN(c3ccc(F)cc3)[C@H](C)C1)NC2=O [Compound A110] | 45% |
